Reference: US10202361B2, “Pyridazinones as herbicides” (E I DU PONT DE NEMOURS AND COMPANY, priority 2014, dated 2019)

Tests used:
Assay type in all cases: in vivo
[1] = tested on: barnyardgrass (Echinochloa crus-galli); experiment: Test A pre-/postemergence greenhouse herbicide test; conditions: 0 to 100 scale (0 no effect, 100 complete control), approx. 10 d
Method in brief: (§1)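 Injury was scored visually on a 0 to 100 scale, where 0 meant no effect and 100 complete control, relative to untreated plants after about 10 d in the greenhouse. Preemergence treatment was a directed soil spray on seeded loam–sand; postemergence spray went onto one- to two-leaf plants.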

[2] = tested on: foxtail, giant (giant foxtail, Setaria faberii); experiment: as above; conditions: 0 to 100 scale (0 no effect, 100 complete control), approx. 10 d
Method in brief: as §1

[3] = tested on: velvetleaf (Abutilon theophrasti); experiment: as above; conditions: 0 to 100 scale (0 no effect, 100 complete control), approx. 10 d
Method in brief: as §1

[4] = tested on: crabgrass, Large (large crabgrass, Digitaria sanguinalis); experiment: as above; conditions: 0 to 100 scale (0 no effect, 100 complete control), approx. 10 d
Method in brief: as §1

[5] = tested on: morningglory (Ipomoea spp.); experiment: as above; conditions: 0 to 100 scale (0 no effect, 100 complete control), approx. 10 d
Method in brief: as §1

[6] = tested on: pigweed (Amaranthus retroflexus); experiment: as above; conditions: 0 to 100 scale (0 no effect, 100 complete control), approx. 10 d
Method in brief: as §1

[7] = tested on: wheat (Triticum aestivum); experiment: as above; conditions: 0 to 100 scale (0 no effect, 100 complete control), approx. 10 d
Method in brief: as §1

corn (Zea mays) = experiment: as above; conditions: 0 to 100 scale (0 no effect, 100 complete control), approx. 10 d
Method in brief: as §1

[8] = tested on: barnyardgrass (Echinochloa crus-galli); experiment: Test B flooded paddy test; conditions: Flood, 125 g ai/ha; scale of 0 to 100, 0 is no effect, 100 is complete control; 13 to 15 d
Method in brief: (§2)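 Visual scores from 0 (no effect) to 100 (complete control) are relative to controls, assessed 13 to 15 d after treatment under greenhouse conditions. Treatment went into the paddy water of pots flooded 3 cm deep, with seedlings at the 2-leaf stage and flooding maintained.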

rice (Oryza sativa) = experiment: Test B flooded paddy test; conditions: Flood, 125 g ai/ha; scale of 0 to 100, 0 is no effect, 100 is complete control; 13 to 15 d
Method in brief: as §2

[9] = tested on: ducksalad (Heteranthera limosa); experiment: Test B flooded paddy test; conditions: Flood, 125 g ai/ha; scale of 0 to 100, 0 is no effect, 100 is complete control; 13 to 15 d
Method in brief: as §2

[10] = tested on: sedge, umbrella (small-flower umbrella sedge, Cyperus difformis); experiment: Test B flooded paddy test; conditions: Flood, 125 g ai/ha; scale of 0 to 100, 0 is no effect, 100 is complete control; 13 to 15 d
Method in brief: as §2

Row | Structure (SMILES) | Plant response rating, Barnyardgrass ([1]; Postemergence, 125 g ai/ha) | Plant response rating, Barnyardgrass ([1]; Postemergence, 500 g ai/ha) | Plant response rating, Barnyardgrass ([1]; Preemergence, 125 g ai/ha) | Plant response rating, Barnyardgrass ([1]; Preemergence, 500 g ai/ha) | Plant response rating, Foxtail, Giant ([2]; Postemergence, 125 g ai/ha) | Plant response rating, Foxtail, Giant ([2]; Postemergence, 500 g ai/ha) | Plant response rating, Foxtail, Giant ([2]; Preemergence, 125 g ai/ha) | Plant response rating, Foxtail, Giant ([2]; Preemergence, 500 g ai/ha) | Plant response rating, Velvetleaf ([3]; Postemergence, 125 g ai/ha) | Plant response rating, Velvetleaf ([3]; Postemergence, 500 g ai/ha) | Plant response rating, Velvetleaf ([3]; Preemergence, 125 g ai/ha) | Plant response rating, Velvetleaf ([3]; Preemergence, 500 g ai/ha) | Plant response rating, Crabgrass, Large ([4]; Postemergence, 125 g ai/ha) | Plant response rating, Crabgrass, Large ([4]; Postemergence, 500 g ai/ha) | Plant response rating, Crabgrass, Large ([4]; Preemergence, 125 g ai/ha) | Plant response rating, Crabgrass, Large ([4]; Preemergence, 500 g ai/ha) | Plant response rating, Morningglory ([5]; Postemergence, 125 g ai/ha) | Plant response rating, Morningglory ([5]; Postemergence, 500 g ai/ha) | Plant response rating, Morningglory ([5]; Preemergence, 125 g ai/ha) | Plant response rating, Morningglory ([5]; Preemergence, 500 g ai/ha) | other results
1 | CN(C)c1cc(=O)n(-c2ccc(F)cc2)nc1Cc1ccnc(C(F)(F)F)c1 [Compound 20] | 50 | 90 | 20 | 90 | 40 | 80 | 80 | 100 | 60 | 70 | 20 | 50 | 50 | 90 | 100 | 100 | 50 | 100 | 10 | 60 | Plant response rating, Pigweed ([6]; Postemergence, 125 g ai/ha): 90; Plant response rating, Pigweed ([6]; Postemergence, 500 g ai/ha): 100; Plant response rating, Pigweed ([6]; Preemergence, 125 g ai/ha): 100; Plant response rating, Pigweed ([6]; Preemergence, 500 g ai/ha): 100; Plant response rating, Wheat ([7]; Postemergence, 125 g ai/ha): 0; Plant response rating, Wheat ([7]; Postemergence, 500 g ai/ha): 50; Plant response rating, Wheat ([7]; Preemergence, 125 g ai/ha): 0; Plant response rating, Wheat ([7]; Preemergence, 500 g ai/ha): 30; Plant response rating, Corn (corn (Zea mays); Postemergence, 125 g ai/ha): 30; Plant response rating, Corn (corn (Zea mays); Postemergence, 500 g ai/ha): 60; Plant response rating, Corn (corn (Zea mays); Preemergence, 125 g ai/ha): 0; Plant response rating, Corn (corn (Zea mays); Preemergence, 500 g ai/ha): 10; Plant response rating, Barnyardgrass [8]: 0; Plant response rating, Rice (rice (Oryza sativa)): 0; Plant response rating, Ducksalad [9]: 0; Plant response rating, Sedge, Umbrella [10]: 0
2 | CN(C)c1cc(=O)n(-c2ccc(C(F)(F)F)cc2)nc1Cc1ccnc(C(F)(F)F)c1 [Compound 21] | 40 | 50 | 10 | 30 | 30 | 50 | 30 | 70 | 60 | 80 | 0 | 20 | 20 | 60 | 80 | 100 | 30 | 60 | 0 | 10 | Plant response rating, Pigweed ([6]; Postemergence, 125 g ai/ha): 90; Plant response rating, Pigweed ([6]; Postemergence, 500 g ai/ha): 90; Plant response rating, Pigweed ([6]; Preemergence, 125 g ai/ha): 100; Plant response rating, Pigweed ([6]; Preemergence, 500 g ai/ha): 100; Plant response rating, Wheat ([7]; Postemergence, 125 g ai/ha): 20; Plant response rating, Wheat ([7]; Postemergence, 500 g ai/ha): 30; Plant response rating, Wheat ([7]; Preemergence, 125 g ai/ha): 0; Plant response rating, Wheat ([7]; Preemergence, 500 g ai/ha): 10; Plant response rating, Corn (corn (Zea mays); Postemergence, 125 g ai/ha): 20; Plant response rating, Corn (corn (Zea mays); Postemergence, 500 g ai/ha): 40; Plant response rating, Corn (corn (Zea mays); Preemergence, 125 g ai/ha): 0; Plant response rating, Corn (corn (Zea mays); Preemergence, 500 g ai/ha): 0; Plant response rating, Barnyardgrass [8]: 0; Plant response rating, Rice (rice (Oryza sativa)): 0; Plant response rating, Ducksalad [9]: 0; Plant response rating, Sedge, Umbrella [10]: 90
3 | CCCc1cc(=O)n(-c2ccc(F)cc2)nc1Cc1ccnc(C(F)(F)F)c1 [Compound 24] | 70 | 90 | 70 | 100 | 70 | 80 | 100 | 100 | 80 | 80 | 30 | 80 | 70 | 90 | 100 | 100 | 50 | 90 | 30 | 80 | Plant response rating, Pigweed ([6]; Postemergence, 125 g ai/ha): 100; Plant response rating, Pigweed ([6]; Postemergence, 500 g ai/ha): 100; Plant response rating, Pigweed ([6]; Preemergence, 125 g ai/ha): 100; Plant response rating, Pigweed ([6]; Preemergence, 500 g ai/ha): 100; Plant response rating, Wheat ([7]; Postemergence, 125 g ai/ha): 50; Plant response rating, Wheat ([7]; Postemergence, 500 g ai/ha): 70; Plant response rating, Wheat ([7]; Preemergence, 125 g ai/ha): 30; Plant response rating, Wheat ([7]; Preemergence, 500 g ai/ha): 50; Plant response rating, Corn (corn (Zea mays); Postemergence, 125 g ai/ha): 50; Plant response rating, Corn (corn (Zea mays); Postemergence, 500 g ai/ha): 60; Plant response rating, Corn (corn (Zea mays); Preemergence, 125 g ai/ha): 30; Plant response rating, Corn (corn (Zea mays); Preemergence, 500 g ai/ha): 50; Plant response rating, Barnyardgrass [8]: 0; Plant response rating, Rice (rice (Oryza sativa)): 20; Plant response rating, Ducksalad [9]: 30; Plant response rating, Sedge, Umbrella [10]: 90
